Reference: BindingDB's records for doi:10.1021/bi990204w (National Institute of Diabetes and Digestive and Kidney …, 1999)
Where “and” joins values, the source holds several entries; their conditions need not be identical. Equal entries are not always repeated. Where a SMILES comes first, the peptide text is derived from it. Bridges are numbered along the chain shown (N, C = ends). [ ]: non-standard residue; d: D form. The star is where a group is joined. X1 = CC(C)C[C@@H](CN[C@@H](CC(C)C)C(N)=O)N*; 2Nal = N[C@@H](Cc1ccc2ccccc2c1)C(=O)O; d2Nal = N[C@H](Cc1ccc2ccccc2c1)C(=O)O; pGlu = O=C1CC[C@@H](C(=O)O)N1; Nle = CCCC[C@H](N)C(=O)O; βAla = NCCC(=O)O

Legend:
[1] = target: T1, Bombesin receptor subtype-3 (Homo sapiens, UniProt P32247)
T1 sequence (P32247 whole entry): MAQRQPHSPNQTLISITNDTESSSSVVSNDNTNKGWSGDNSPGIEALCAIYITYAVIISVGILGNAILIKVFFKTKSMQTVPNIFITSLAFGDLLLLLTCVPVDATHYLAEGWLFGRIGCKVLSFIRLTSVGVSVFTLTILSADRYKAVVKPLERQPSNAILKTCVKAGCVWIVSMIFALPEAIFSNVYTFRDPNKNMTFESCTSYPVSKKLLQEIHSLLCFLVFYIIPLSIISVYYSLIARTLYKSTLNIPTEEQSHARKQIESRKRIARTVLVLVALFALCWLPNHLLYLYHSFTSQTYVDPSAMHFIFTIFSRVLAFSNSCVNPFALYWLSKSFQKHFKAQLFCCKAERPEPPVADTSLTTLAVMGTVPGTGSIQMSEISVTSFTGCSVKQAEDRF

Neuromedin-B receptor = target: T2, Neuromedin-B receptor (Rattus norvegicus, UniProt P24053)
T2 sequence (P24053 whole entry): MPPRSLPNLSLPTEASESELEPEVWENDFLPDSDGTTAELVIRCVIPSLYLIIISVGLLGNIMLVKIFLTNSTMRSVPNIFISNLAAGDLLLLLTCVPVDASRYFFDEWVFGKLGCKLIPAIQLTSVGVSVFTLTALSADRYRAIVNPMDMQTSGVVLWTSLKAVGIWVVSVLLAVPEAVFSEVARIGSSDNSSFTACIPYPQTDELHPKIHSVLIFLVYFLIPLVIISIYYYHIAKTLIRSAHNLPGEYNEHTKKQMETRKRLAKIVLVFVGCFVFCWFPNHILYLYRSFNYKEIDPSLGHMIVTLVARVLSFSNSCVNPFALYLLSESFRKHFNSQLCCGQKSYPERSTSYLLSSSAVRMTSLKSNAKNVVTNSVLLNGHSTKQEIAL

[2] = target: Gastrin-releasing peptide receptor (Rattus norvegicus, UniProt P52500)
[3] = target: Gastrin-releasing peptide receptor (Mus musculus, UniProt P21729)
Chain of Gastrin-releasing peptide receptor (Mus musculus, UniProt P21729) (P21729 whole entry): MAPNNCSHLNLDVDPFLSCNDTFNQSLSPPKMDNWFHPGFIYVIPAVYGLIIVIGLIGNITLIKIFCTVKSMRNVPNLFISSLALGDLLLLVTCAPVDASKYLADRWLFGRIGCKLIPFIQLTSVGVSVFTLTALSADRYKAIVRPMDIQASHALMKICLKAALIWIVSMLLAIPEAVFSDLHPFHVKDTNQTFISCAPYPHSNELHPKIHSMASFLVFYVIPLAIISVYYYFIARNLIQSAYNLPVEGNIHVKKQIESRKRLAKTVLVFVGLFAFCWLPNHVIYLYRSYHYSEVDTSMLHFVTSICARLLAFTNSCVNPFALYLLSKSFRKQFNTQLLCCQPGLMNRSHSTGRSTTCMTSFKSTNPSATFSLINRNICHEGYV

Chain of Gastrin-releasing peptide receptor (Rattus norvegicus, UniProt P52500) (P52500 whole entry N28S): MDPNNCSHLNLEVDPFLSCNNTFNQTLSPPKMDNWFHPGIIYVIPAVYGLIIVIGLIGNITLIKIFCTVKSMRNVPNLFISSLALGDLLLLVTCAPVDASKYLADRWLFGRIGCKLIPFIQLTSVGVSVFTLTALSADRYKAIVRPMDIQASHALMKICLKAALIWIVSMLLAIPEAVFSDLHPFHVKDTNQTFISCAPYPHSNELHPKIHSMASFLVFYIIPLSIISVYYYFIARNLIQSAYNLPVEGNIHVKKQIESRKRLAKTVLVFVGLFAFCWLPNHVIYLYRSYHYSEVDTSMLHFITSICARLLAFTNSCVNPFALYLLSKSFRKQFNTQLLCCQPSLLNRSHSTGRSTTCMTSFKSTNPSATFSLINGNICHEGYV

Row | Ki [1] | Ki (Neuromedin-B receptor) | Ki [2] | Ki [3] | SMILES
1 | 0.0089 µM | 0.36 nM | 0.99 nM | 0.26 nM and 0.24 nM and 0.19 nM and 0.11 nM | CCCC[C@H](NC(=O)[C@H](Cc1ccccc1)NC(=O)[C@H](Cc1c[nH]cn1)NC(=O)CCNC(=O)[C@@H](NC(=O)[C@H](C)NC(=O)[C@H](Cc1c[nH]c2ccccc12)NC(=O)[C@H](CCC(N)=O)NC(=O)[C@H](N)Cc1ccccc1)C(C)C)C(N)=O [DPhe6,BetaAla11,Phe13,Nle14-Bn(6-14)] (H-[dF]QWAV[βAla]HF[Nle]-NH2)
2 | 2.8 µM | 220 nM | > 10000 nM | – | CC(C)[C@@H]1NC(=O)[C@H](CCCCN)NC(=O)[C@@H](Cc2c[nH]c3ccccc23)NC(=O)[C@H](Cc2ccc(O)cc2)NC(=O)[C@H](NC(=O)[C@H](N)Cc2ccc3ccccc3c2)CSSC[C@@H](C(=O)N[C@@H](Cc2ccc3ccccc3c2)C(N)=O)NC1=O [H-Nal-cyclo[DCys-Tyr-DTrp-Lys-Val-Cys]-Nal-NH2] (H-[d2Nal][dC]Y[dW]KVC[2Nal]-NH2; disulfide 2-7)
3 | > 10 µM | > 10000 nM | 430 nM | – | CC(C)C[C@@H](CN[C@@H](CC(C)C)C(N)=O)NC(=O)[C@H](Cc1cnc[nH]1)NC(=O)CNC(=O)[C@@H](NC(=O)[C@H](C)NC(=O)[C@H](Cc1c[nH]c2ccccc12)NC(=O)[C@H](CCC(N)=O)NC(=O)[C@H](CC(N)=O)NC(=O)CNC(=O)[C@H](CC(C)C)NC(=O)[C@H](CCCN=C(N)N)NC(=O)[C@H](CCC(N)=O)NC(=O)[C@@H]1CCC(=O)N1)C(C)C [Leu13,Psi(CH2NH),Leu14-BN] ([pGlu]QRLGNQWAVGH-X1)
4 | 6.9 µM | 13 nM | 2 nM | – | CSCC[C@H](NC(=O)[C@H](Cc1ccccc1)NC(=O)[C@H](Cc1c[nH]cn1)NC(=O)CNC(=O)[C@@H](NC(=O)[C@H](C)NC(=O)[C@H](Cc1c[nH]c2ccccc12)NC(=O)[C@H](CCC(N)=O)NC(=O)[C@@H]1CCCN1C(=O)[C@@H](NC(=O)[C@@H]1CCC(=O)N1)C(C)C)C(C)C)C(N)=O [CAS_29451-71-6] ([pGlu]VPQWAVGHFM-NH2)
5 | > 10 µM | > 10000 nM | 130 nM | – | CSCC[C@H](NC(=O)[C@H](CC(C)C)NC(=O)[C@H](Cc1cnc[nH]1)NC(=O)CNC(=O)[C@@H](NC(=O)[C@H](C)NC(=O)[C@H](Cc1c[nH]c2ccccc12)NC(=O)[C@H](Cc1cnc[nH]1)NC(=O)[C@H](CC(N)=O)NC(=O)CN)C(C)C)C(N)=O [GRP-10,frog]
6 | 5.3 µM | 7700 nM | 10 nM | – | COC(=O)[C@H](CC(C)C)NC(=O)[C@H](Cc1cnc[nH]1)NC(=O)CNC(=O)[C@@H](NC(=O)[C@H](C)NC(=O)[C@H](Cc1c[nH]c2ccccc12)NC(=O)[C@H](CCC(N)=O)NC(=O)[C@H](N)Cc1ccccc1)C(C)C [DPhe6-Bn(6-13)methylester]
7 | 1.9 µM | 4600 nM | 6 nM | – | CCCNC(=O)[C@H](CC(C)C)NC(=O)[C@H](Cc1cnc[nH]1)NC(=O)CNC(=O)[C@@H](NC(=O)[C@H](C)NC(=O)[C@H](Cc1c[nH]c2ccccc12)NC(=O)[C@H](CCC(N)=O)NC(=O)[C@H](N)Cc1ccccc1)C(C)C [DPhe6-Bn(6-13)propylamide]
8 | > 10 µM | 14 nM | 2 nM | – | CSCC[C@H](NC(=O)[C@H](CC(C)C)NC(=O)[C@H](Cc1cnc[nH]1)NC(=O)CNC(=O)[C@@H](NC(=O)[C@H](C)NC(=O)[C@H](Cc1c[nH]c2ccccc12)NC(=O)[C@H](CCC(N)=O)NC(=O)[C@H](N)Cc1ccccc1)C(C)C)C(N)=O [DPhe6-Bn[6-14)]
9 | > 10 µM | 1900 nM | > 10000 nM | – | CSCC[C@H](NC(=O)[C@H](CC(C)C)NC(=O)[C@@H](Cc1ccccc1)NC(=O)CNC(=O)[C@@H](NC(=O)[C@H](C)NC(=O)[C@H](Cc1c[nH]c2ccccc12)NC(=O)[C@H](CCC(N)=O)NC(=O)[C@H](CC(N)=O)NC(=O)CNC(=O)[C@H](CC(C)C)NC(=O)[C@H](CCCN=C(N)N)NC(=O)[C@H](CCC(N)=O)NC(=O)[C@@H]1CCC(=O)N1)C(C)C)C(N)=O [Dphe12-Bn]
10 | 7.1 µM | > 10000 nM | 3200 nM | – | CSCC[C@H](NC(=O)[C@H](Cc1ccccc1)NC(=O)[C@H](Cc1cnc[nH]1)NC(=O)CNC(=O)[C@@H](NC(=O)[C@H](CCCN=C(N)N)NC(=O)[C@H](Cc1c[nH]c2ccccc12)NC(=O)[C@H](CCC(N)=O)NC(=O)[C@H](CC(N)=O)NC(=O)CNC(=O)[C@H](CC(C)C)NC(=O)[C@H](CO)NC(=O)[C@H](CCC(N)=O)NC(=O)[C@@H]1CCC(=O)N1)C(C)C)C(N)=O [CAS_31362-50-2] ([pGlu]QSLGNQWRVGHFM-NH2)
11 | > 10 µM | 2300 nM | 430 nM | – | CC(C)C[C@H](NC(=O)[C@H](CC(C)C)NC(=O)[C@@H](Cc1ccccc1)NC(=O)CNC(=O)[C@@H](NC(=O)[C@H](C)NC(=O)[C@H](Cc1c[nH]c2ccccc12)NC(=O)[C@H](CCC(N)=O)NC(=O)[C@@H](Cc1ccccc1)NC(=O)CNC(=O)[C@H](CC(C)C)NC(=O)[C@H](CCCN=C(N)N)NC(=O)[C@H](CCC(N)=O)NC(=O)[C@@H]1CCC(=O)N1)C(C)C)C(N)=O [DPhe6,12,Leu14-Bn]
